# In patent US10376476B2, “Panicein compounds, compositions and uses thereof” (CENTRE NATIONAL DE LA RECHERCHE SCIENTIFIQUE, priority 2014, dated 2019):
# Biological target: T1, mutant Patched G509VD513Y (hPtcVXXXY) expressed in yeasts (Homo sapiens, UniProt Q13635, D513Y/G509V)
# T1 construct: MAP; expressed in transfected cells; host or cells: Saccharomyces cerevisiae K699
# T1 sequence (Q13635 1-1447 G509V/D513Y): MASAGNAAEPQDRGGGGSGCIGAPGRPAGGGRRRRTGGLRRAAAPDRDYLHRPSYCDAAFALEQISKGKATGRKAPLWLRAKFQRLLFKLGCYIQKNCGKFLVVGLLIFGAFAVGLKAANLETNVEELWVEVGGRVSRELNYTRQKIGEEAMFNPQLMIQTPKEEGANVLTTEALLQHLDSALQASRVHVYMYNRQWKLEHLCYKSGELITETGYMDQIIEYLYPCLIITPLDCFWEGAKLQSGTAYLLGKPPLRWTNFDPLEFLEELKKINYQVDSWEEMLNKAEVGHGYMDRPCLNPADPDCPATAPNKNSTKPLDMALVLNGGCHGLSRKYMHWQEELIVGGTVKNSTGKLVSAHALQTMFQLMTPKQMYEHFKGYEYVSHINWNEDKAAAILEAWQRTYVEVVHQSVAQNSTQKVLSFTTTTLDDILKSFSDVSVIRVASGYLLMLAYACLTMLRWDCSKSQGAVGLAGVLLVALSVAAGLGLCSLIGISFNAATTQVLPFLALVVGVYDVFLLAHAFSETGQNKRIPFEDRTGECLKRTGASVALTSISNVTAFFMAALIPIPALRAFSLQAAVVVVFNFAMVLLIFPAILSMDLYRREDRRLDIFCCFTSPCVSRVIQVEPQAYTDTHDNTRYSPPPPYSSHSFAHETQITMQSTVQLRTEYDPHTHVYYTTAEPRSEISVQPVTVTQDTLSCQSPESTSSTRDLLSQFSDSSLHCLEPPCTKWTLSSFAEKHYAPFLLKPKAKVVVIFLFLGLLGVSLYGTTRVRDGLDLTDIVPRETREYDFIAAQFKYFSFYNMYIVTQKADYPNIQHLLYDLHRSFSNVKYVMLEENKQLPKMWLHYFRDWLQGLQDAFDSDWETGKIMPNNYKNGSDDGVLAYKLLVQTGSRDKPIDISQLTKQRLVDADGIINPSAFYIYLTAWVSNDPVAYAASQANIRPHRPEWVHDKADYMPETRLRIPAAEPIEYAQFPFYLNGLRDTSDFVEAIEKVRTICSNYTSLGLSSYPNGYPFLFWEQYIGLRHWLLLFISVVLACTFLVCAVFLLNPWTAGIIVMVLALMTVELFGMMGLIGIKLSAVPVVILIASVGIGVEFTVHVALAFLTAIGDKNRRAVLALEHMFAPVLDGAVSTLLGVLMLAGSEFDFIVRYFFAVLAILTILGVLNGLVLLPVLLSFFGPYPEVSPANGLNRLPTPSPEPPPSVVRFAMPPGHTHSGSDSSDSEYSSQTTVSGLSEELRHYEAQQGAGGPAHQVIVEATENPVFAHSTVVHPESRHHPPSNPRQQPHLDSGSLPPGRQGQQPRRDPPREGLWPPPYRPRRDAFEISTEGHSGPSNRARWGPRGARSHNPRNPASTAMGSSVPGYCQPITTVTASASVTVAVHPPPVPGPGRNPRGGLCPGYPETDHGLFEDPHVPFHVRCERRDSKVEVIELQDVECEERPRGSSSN
# Test: Doxorubicin efflux from yeasts (intracellular dxr fluorescence)
# Format: cell-based
# Conditions: hPtc-YXXXG-yeasts (mutant Patched), 10 μM paniceins, 10 min, 5 mM 2-deoxy-D-glucose
# Protocol: A. Compound P5 inhibits doxorubicin efflux from melanoma cells MeWo and A375. Cells were grown on cover-slips, incubated for 2 hour at 37° C. with 10 μM doxorubicin and quickly rinsed with phosphate buffer (pH 7.4). One cover-slip of each cell line was immediately fixed for doxorubicin charge control. The other cover-slips were incubated with buffer supplemented with DMSO or 10 μM of compound P5 30 min under gentle shaking and immediately fixed. Dxr intracellular fluorescence was visualized by epifluorescence and analyzed using Image J software on more than 30 cells of 3 different fields for each condition. The results were analyzed using the Student t test in which significance is attained at P<0.05 (**: P<0.005, ***: P<0.0005). B. Paniceins inhibit doxorubicin efflux from Patched-expressing yeasts. Yeasts expressing wild-type Patched (hPtc, in black), mutant Patched G509VD513Y (hPtcVXXXY, in grey), and control yeasts (in white) were incubated in buffer supplemented with 5 mM of 2-deoxy-D-glucose and 10 μM dxr for 2 hours at 4° C. After centrifugation and supernatant removing, one sample was immediately fixed for charge control and the other samples were resuspended in buffer containing 5 mM of 2-deoxy-D-glucose supplemented with DMSO or 10 μM of paniceins 10 minutes at 25° C. with gentle shaking. After centrifugation and supernatant removing, samples were fixed and deposited on coverslips for epifluorescence microscopy observation. Dxr intracellular fluorescence quantification was carried out using Image J software on more than 30 yeasts on 3 different fields for each condition. The results were analyzed using the Student t test in which significance is attained at P<0.05 (*).
# On yeasts: Yeasts expressing Patched (hPtc), mutant Patched (hPtcG509VD513Y), or control yeasts were washed with cold water, resuspended at an OD600 of 10 in Hepes-NaOH buffer (pH 7.0) supplemented with 5 mM of 2-deoxy-D-glucose, and incubated with 10 μM doxorubicin for 2 hours at 4° C. in the cold room on a rotating wheel protected from light. Yeasts were centrifuged and the supernatant was removed. One sample was immediately fixed with 4% paraformaldehyde for doxorubicin loading control. The other samples were resuspended in Hepes-NaOH buffer (pH 7.0) containing 5 mM of 2-deoxy-D-glucose supplemented with DMSO or 10 μM of paniceins, and incubated 10 minutes at 20° C. with gentle shaking in a Benchmark Multi-therm shaker protected from light. Samples were centrifuged for 1 minute at 18,000 g, supernatants were removed and yeasts were fixed with 4% paraformaldehyde. 10 μL of each sample were deposited on a coverslip and observed by epifluorescence microscopy using an objective 63x and filters for Alexa 594. Quantification of doxorubicin intracellular fluorescence was carried out using Image J software on more than 30 yeasts on 3 different fields for each condition. The results were analyzed using the Student t test in which significance is attained at P <0.05.
# In order to see if Paniceins inhibit dxr efflux through Patched inhibition, inventors compared dxr efflux on yeasts over-expressing human Patched and control yeasts. After loading with dxr, yeasts were centrifuged and fixed for dxr loading control (LC), or resuspended in buffer supplemented with DMSO or paniceins for efflux measurements. After 10 min a 20° C., yeasts were collected, fixed and deposited on cover-slips. 2-deoxy-D-glucose was added in buffer during loading and efflux in order to inhibit ATP-binding cassette (ABC) transporters. Dxr fluorescence intensity of at least 30 yeasts was measured for each experiment. FIGS. 6A and 12A show the mean fluorescence intensity of 3 independent experiments. […] This was confirmed using yeasts over-expressing Patched mutant VXXXY. […] Yeasts over-expressing hPtcVXXXY are less resistance to growth inhibition by dxr than yeasts over-expressing wild-type hPtc (Bidet et al., 2012).
row,Compound,Efflux (%) of dxr
1,"C/C(=C\Cc1cc(O)ccc1O)CCc1c(C)c(O)c(O)c(C=O)c1C [P2, Panicein C]",39%
2,"C/C(=C\Cc1cc(O)ccc1O)CCc1c(C)cc(O)c(C=O)c1C [P3, Panicein B3]",32%
3,"Cc1cc(O)c(C=O)c(C)c1CCC1(C)C=Cc2cc(O)ccc2O1 (stereo not shown) [P4, Panicein B2]",38%
4,"COc1cc(C)c(CC/C(C)=C/Cc2cc(O)ccc2O)c(C)c1C [P5, Panicein A hydroquinone]",42%
